The source of these data is ChEMBL document CHEMBL6182948 (J Med Chem, 2025).

Data set [1] is described as follows: Stability in human plasma assessed as compound remaining at 100 uM measured after 30 mins by LC-MS/MS analysis. The class given is ADME, cell-free. As to conditions: read-out: Stability.
Data set [2] in a line: Metabolic stability in liver microsomes (unknown origin) assessed as compound remaining at 0.5 mg/ml measured after 60 mins in presence of NADPH regenerating system by LC-MS/MS analysis relative to control. The format is ADME, Microsome. The settings on record: read-out: Stability. For orientation: Microsomes from liver hold many membrane-bound enzymes, among them those of drug oxidation.

Data set [3] can be described thus: Stability in human plasma assessed as compound remaining at 100 uM measured after 120 mins by LC-MS/MS analysis. The settings on record: read-out: Stability. The format is ADME, cell-free.
Data set [4] deals with CYP2D6 (Homo sapiens, UniProt P10635). Put plainly: Inhibition of CYP2D6 in human liver microsome at 10 uM pre-incubated with compound for 5 mins followed NADPH addition and measured after 10 mins by LC-MS/MS analysis relative to control. The class given is ADME. As to conditions: liver microsomes, time 15 min.
Chain of CYP2D6 (P10635 whole entry): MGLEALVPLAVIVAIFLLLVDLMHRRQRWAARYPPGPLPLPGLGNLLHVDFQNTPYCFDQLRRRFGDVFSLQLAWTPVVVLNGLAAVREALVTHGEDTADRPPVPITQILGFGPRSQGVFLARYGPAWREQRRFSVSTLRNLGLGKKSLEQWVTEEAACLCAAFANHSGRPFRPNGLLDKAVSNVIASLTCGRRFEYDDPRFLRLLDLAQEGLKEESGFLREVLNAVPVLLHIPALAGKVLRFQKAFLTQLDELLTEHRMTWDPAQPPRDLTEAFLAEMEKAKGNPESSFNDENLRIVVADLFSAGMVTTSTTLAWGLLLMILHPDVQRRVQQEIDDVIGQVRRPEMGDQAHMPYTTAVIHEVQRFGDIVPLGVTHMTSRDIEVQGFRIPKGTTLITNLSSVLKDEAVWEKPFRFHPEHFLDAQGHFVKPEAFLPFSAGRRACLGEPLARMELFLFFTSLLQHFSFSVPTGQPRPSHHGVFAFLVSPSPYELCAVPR
The species entered for data set [5] is Homo sapiens. Put plainly: Selectivity index, ratio of IC50 for human recombinant CYP1A2 to IC50 for human recombinant CYP1B1 using 7-ethoxyresorufin as substrate.
Data set [6] in a line: Metabolic stability in liver microsomes (unknown origin) assessed as compound remaining at 0.5 mg/ml measured after 30 mins in presence of NADPH regenerating system by LC-MS/MS analysis relative to control. The format is ADME, Microsome. As to conditions: read-out: Stability.
A short description of data set [7]: Metabolic stability in liver microsomes (unknown origin) assessed as half life at 0.5 mg/ml measured up to 60 mins by LC-MS/MS analysis. The format is ADME, Microsome.
In data set [8] the target is T1, CYP2C8 (Homo sapiens, UniProt P10632).
T1 sequence (P10632 whole entry): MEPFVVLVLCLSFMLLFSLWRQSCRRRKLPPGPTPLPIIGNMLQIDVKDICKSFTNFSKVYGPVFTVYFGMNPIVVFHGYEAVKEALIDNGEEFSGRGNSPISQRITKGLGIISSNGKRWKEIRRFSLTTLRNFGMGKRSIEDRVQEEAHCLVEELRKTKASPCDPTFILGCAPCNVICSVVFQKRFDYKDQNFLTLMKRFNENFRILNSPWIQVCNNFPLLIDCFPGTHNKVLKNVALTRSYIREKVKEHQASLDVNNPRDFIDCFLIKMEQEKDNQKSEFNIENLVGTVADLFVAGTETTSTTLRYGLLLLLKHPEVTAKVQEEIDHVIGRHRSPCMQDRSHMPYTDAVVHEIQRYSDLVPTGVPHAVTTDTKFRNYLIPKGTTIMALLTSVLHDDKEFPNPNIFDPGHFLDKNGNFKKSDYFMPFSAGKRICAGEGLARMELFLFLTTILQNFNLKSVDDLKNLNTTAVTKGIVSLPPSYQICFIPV
Put plainly: Inhibition of CYP2C8 in human liver microsome at 10 uM pre-incubated with compound for 5 mins followed NADPH addition and measured after 5 mins by LC-MS/MS analysis relative to control. The format is ADME. As to conditions: liver microsomes, time 10 min.

Data set [9] is described as follows: Metabolic stability in liver microsomes (unknown origin) assessed as compound remaining at 0.5 mg/ml measured immediately in presence of NADPH regenerating system by LC-MS/MS analysis relative to control. The format is ADME, Microsome. As to conditions: read-out: Stability.
The target of data set [10] is T2, Cytochrome P450 1A2 (Homo sapiens, UniProt P05177).
T2 sequence (P05177 whole entry): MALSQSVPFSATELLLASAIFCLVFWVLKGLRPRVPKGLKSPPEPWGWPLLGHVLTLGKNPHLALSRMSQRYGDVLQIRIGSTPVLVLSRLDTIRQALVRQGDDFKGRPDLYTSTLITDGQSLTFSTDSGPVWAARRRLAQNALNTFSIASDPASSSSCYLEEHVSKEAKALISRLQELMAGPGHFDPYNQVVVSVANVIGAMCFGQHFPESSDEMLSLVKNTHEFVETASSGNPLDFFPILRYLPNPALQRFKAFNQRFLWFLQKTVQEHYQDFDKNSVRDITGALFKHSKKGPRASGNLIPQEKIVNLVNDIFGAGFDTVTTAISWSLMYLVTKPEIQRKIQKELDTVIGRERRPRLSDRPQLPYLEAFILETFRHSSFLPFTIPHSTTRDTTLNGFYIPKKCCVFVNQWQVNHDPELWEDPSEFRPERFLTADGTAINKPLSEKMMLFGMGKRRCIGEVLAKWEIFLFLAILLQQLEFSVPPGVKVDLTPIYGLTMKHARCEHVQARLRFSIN
Put plainly: Inhibition of human recombinant CYP1A2 using 7-ethoxyresorufin as substrate incubated under dark condition for 45 mins in presence of NADPH by EROD fluorescence assay. The format is ADME.

Data set [11] addresses T3, Cytochrome P450 1B1 (Homo sapiens, UniProt Q16678).
T3 sequence (Q16678 whole entry): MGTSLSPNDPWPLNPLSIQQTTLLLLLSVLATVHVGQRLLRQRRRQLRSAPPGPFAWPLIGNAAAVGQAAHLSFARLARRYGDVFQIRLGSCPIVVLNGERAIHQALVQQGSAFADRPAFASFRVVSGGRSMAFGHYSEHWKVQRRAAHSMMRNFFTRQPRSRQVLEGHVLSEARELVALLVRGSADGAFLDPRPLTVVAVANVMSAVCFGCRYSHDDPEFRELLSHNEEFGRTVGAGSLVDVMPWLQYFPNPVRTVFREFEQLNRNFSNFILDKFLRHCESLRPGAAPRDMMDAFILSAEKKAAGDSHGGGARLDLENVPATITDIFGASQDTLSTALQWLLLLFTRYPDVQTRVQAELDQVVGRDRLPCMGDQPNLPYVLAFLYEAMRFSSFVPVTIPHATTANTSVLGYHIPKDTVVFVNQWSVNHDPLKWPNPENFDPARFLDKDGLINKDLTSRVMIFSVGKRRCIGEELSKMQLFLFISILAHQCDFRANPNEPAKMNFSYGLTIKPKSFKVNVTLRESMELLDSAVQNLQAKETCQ
Briefly: Inhibition of human recombinant CYP1B1 using 7-ethoxyresorufin as substrate incubated under dark condition for 30 mins in presence of NADPH by EROD fluorescence assay. The format is ADME.

The nature of data set [12]: Cytotoxicity against human BEAS-2B cells assessed as inhibition of cell viability incubated for 48 hrs by CCK-8 assay. The format is toxicity, cell-based. Background: Tetrazolium assays rely on reduction of a dye to a coloured formazan, in cell work by metabolically active cells.
A short description of data set [13]: Metabolic stability in liver microsomes (unknown origin) assessed as compound remaining at 0.5 mg/ml measured after 5 mins in presence of NADPH regenerating system by LC-MS/MS analysis relative to control. The format is ADME, Microsome. As to conditions: read-out: Stability.
A short description of data set [14]: Cytotoxicity against HUVEC assessed as inhibition of cell viability incubated for 48 hrs by CellTiter Glo assay. The class given is toxicity, cell-based. As to conditions: human, HUVEC cells. (In ATP-based viability assays light output follows the ATP content of the culture.)
Data set [15] in a line: Stability in human plasma assessed as half life at 100 uM measured up to 120 mins by LC-MS/MS analysis. The class given is ADME, cell-free.
For data set [16], the target named is CYP2C9 (Homo sapiens, UniProt P11712). Put plainly: Inhibition of CYP2C9 in human liver microsome at 10 uM pre-incubated with compound for 5 mins followed NADPH addition and measured after 10 mins by LC-MS/MS analysis relative to control. The class given is ADME. The settings on record: liver microsomes, time 15 min.
Chain of CYP2C9 (P11712 whole entry): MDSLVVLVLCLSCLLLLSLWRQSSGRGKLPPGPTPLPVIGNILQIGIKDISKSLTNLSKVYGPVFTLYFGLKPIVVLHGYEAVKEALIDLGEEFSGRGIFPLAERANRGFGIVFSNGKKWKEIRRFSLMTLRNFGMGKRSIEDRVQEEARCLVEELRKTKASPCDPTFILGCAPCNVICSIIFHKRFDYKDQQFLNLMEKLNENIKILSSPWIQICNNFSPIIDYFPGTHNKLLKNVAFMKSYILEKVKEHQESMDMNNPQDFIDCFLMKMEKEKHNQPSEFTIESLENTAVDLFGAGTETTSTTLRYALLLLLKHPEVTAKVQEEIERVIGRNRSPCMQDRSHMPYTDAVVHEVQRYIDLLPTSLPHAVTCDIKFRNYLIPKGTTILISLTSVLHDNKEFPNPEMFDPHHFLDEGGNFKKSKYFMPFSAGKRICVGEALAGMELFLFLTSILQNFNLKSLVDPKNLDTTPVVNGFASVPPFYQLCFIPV
The subject of data set [17] is A549/TR. Put plainly: Reversal of drug resistance in human A549/Taxol cells assessed as increase in paclitaxel-induced cytotoxicity incubated for 48 hrs by CCK-8 assay. The format is functional, cell-based. As to conditions: dose 2.5-10 µM.

Turning to `N#Cc1ccc(-c2csc(C(=O)Nc3cc(Cl)cc(Cl)c3)n2)cc1`, in [1], the remaining at 0.5 h, 100 µM is 116%. In addition, the remaining at 1 h in data set [2] was 97.1%. Moreover, the remaining at 2 h, 100 µM in data set [3] is 103%. Besides, the inhibition (in general, the drop in the measured response relative to a control, in per cent) at 10 min, 10 µM in data set [4] came out at 0%; in [16], 2.21%. Further, in data set [5], the Ratio IC50 was greater than 56400. In addition, the remaining at 0.5 h in [6] was found to be 102%. Also, the half-life (as a rule, the time in which the quantity being followed falls by half) in data set [7] is greater than 1 h. In addition, the inhibition at 5 min, 10 µM in data set [8] was determined as 0%. Further, in [9], the remaining at 0 min was found to be 100%. Further, the values for the IC50 in [10] and in data set [11] were greater than 100 µM and 1.77 nM, respectively. For the same compound, the IC50 (as a rule, the point on the concentration scale where inhibition reaches its midpoint) at 48 h in data set [12] is greater than 20 µM; in [14], greater than 40 µM. Moreover, the remaining at 5 min in data set [13] turned out to be 93.8%. Moreover, in data set [15], the half-life at 100 µM was greater than 2 h. Also, the Activity result in [17] is “Dose-dependent-effect; Compound Showed Robust Reversal Activity”.
On to `O=C(Nc1cc(Cl)cc(Cl)c1)c1nc(-c2cccc(Cl)c2)cs1`, for which the remaining at 0.5 h, 100 µM in [1] was found to be 106%. In addition, the remaining at 1 h in [2] was determined as 96.6%. Further, the remaining at 2 h, 100 µM in [3] came to 93.9%. The inhibition at 10 min, 10 µM was determined as 0% in data set [4] and 2.21% in [16]. Further, in data set [5], the Ratio IC50 is greater than 54000. Also, the remaining at 0.5 h in data set [6] was determined as 98.2%. Moreover, in [7], the half-life is greater than 1 h. The inhibition at 5 min, 10 µM in data set [8] worked out at 15.7%. For the same compound, in [9], the remaining at 0 min came out at 100%. Further, the IC50 was greater than 80 µM in data set [10] and 1.48 nM in data set [11]. The IC50 at 48 h in data set [12] was greater than 20 µM; in data set [14] it was greater than 40 µM. The remaining at 5 min in [13] was 99.5%. The half-life at 100 µM in data set [15] was greater than 2 h. Moreover, in [17], the Activity entry was “Dose-dependent-effect”.
As to `N#Cc1ccc(-c2csc(C(=O)Nc3ccc(C(F)(F)F)cc3)n2)cc1`, the remaining at 0.5 h, 100 µM in data set [1] amounted to 110%. Moreover, the remaining at 1 h in [2] came out at 54.3%. In addition, in data set [3], the remaining at 2 h, 100 µM turned out to be 93.4%. Further, the inhibition at 10 min, 10 µM in data set [4] stood at 23.1%; in data set [16], 17.4%. In data set [5], the Ratio IC50 was greater than 200000. In data set [6], the remaining at 0.5 h is 72.5%. The half-life in [7] was 1.17 h. Besides, the inhibition at 5 min, 10 µM in [8] was 33.6%. Further, in data set [9], the remaining at 0 min was 100%. Also, the IC50 in data set [10] was greater than 10 µM; in data set [11], 0.05 nM. Besides, the IC50 at 48 h is greater than 20 µM in [12] and greater than 40 µM in data set [14]. For the same compound, the remaining at 5 min in data set [13] is 93.1%. The half-life at 100 µM in data set [15] is greater than 2 h. Moreover, the Activity entry in data set [17] is “Dose-dependent-effect”.
